Results: patent US20240208992A1, “MACROCYCLES AS CFTR MODULATORS” (Idorsia Pharmaceuticals Ltd, priority 2021, published 2024)
Each block holds one compound with its values, some of them ahead of it.

Target: human F508del-CFTR (Homo sapiens, UniProt P13569, DEL508-508)
Assay: F508del-CFTR cell surface expression (corrector activity), DiscoveRx ß-galactosidase complementation chemiluminescence assay in recombinant U2OS cell line;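 also: U2OS cells co-expressing ProLink-tagged F508del-CFTR and a membrane-anchored enzyme acceptor, where more surface CFTR restores β-galactosidase activity measured by chemiluminescence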
Details: for EC50: EC50, F508del-CFTR cell surface expression; for Emax: U2OS
[1] = U2OS cells, 16h compound incubation, geomean values
[2] = in relation to Emax of corrector lumacaftor (=100%), arithmetic mean values
[3] = U2OS cell line, 16h compound incubation, geomean values
[4] = in relation to the Emax of the corrector lumacaftor (=100%), U2OS cell line, 16h compound incubation, arithmetic mean values
[5] = U2OS cells, 16h compound incubation, geomean of several measurements
[6] = in relation to the Emax of the corrector lumacaftor (=100%), U2OS cells, 16h compound incubation, arithmetic mean

human F508del-CFTR, sequence (P13569 with tags, fused parts or gaps DEL508-508): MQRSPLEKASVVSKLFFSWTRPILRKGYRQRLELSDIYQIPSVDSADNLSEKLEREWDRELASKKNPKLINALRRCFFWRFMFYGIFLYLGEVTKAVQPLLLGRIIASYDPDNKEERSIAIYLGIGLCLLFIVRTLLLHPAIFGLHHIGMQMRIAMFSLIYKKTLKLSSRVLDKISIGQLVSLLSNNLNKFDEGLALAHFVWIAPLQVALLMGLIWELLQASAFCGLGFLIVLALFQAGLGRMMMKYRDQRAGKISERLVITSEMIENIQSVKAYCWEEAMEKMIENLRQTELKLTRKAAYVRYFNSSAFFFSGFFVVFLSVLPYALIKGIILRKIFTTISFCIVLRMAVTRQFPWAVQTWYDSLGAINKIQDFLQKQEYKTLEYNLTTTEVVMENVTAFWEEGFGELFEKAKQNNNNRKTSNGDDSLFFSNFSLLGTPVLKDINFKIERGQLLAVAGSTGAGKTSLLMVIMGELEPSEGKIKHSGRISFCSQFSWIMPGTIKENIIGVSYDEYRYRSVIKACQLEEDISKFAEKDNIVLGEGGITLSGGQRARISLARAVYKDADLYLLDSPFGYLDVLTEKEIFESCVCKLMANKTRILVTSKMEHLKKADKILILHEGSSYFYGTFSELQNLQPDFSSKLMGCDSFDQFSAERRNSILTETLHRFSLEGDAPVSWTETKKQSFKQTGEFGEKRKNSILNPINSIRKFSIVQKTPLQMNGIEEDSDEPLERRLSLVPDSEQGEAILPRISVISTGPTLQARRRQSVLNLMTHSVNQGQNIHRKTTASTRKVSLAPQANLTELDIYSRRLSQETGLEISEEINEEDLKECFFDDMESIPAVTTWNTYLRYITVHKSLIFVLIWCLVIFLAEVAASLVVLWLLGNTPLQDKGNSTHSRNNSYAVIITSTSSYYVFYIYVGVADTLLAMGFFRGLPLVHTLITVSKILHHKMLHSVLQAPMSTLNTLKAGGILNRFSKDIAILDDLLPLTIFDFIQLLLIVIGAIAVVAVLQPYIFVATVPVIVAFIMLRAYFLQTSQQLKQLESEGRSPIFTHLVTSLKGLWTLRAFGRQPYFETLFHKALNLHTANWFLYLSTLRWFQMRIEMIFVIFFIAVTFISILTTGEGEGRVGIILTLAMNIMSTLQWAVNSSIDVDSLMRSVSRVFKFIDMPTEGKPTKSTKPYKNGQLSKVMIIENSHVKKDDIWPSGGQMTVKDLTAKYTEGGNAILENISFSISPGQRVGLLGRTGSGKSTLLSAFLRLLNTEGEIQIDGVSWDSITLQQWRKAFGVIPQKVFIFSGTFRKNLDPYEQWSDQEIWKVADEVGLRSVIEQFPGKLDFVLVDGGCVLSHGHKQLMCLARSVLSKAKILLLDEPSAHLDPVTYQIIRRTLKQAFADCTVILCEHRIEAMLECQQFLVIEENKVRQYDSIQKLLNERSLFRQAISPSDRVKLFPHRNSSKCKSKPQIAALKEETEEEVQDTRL

SMILES: COc1nccc2c1C(=O)N[C@H](C(=O)NCCc1noc(C3CC3)n1)CC(=O)N(C)[C@@H](CC(C)C)C(=O)N(C)[C@H](CCc1nc(-c3ccccc3)no1)C(=O)N[C@H](Cc1ccccc1)CO2 [Example 571, (3R,6R,9S,13S)-3-benzyl-N-(2-(5-cyclopropyl-1,2,4-oxadiazol-3-yl)ethyl)-9-isobutyl-16-methoxy-7,10-dimethyl-5,8,11,15-tetraoxo-6-(2-(3-phenyl-1,2,4-oxadiazol-5-yl)ethyl)-2,3,4,5,6,7,8,9,10,11,12,13,14,15-tetradecahydropyrido[3,4-p][1]oxa[4,7,10,14]tetraazacycloheptadecine-13-carboxamide]
EC50 [1]: 47 nM | Emax [2]: 347%

SMILES: COc1cccc(CCNC(=O)[C@@H]2CC(=O)N(C)[C@@H](C)C(=O)N(CCC3CCCCC3)CC(=O)N[C@H](Cc3ccccc3)COc3cc(OC)cc(OC)c3C(=O)N2)c1 [Example 273, (3R,9S,13S)-3-benzyl-7-(2-cyclohexylethyl)-16,18-dimethoxy-N-(3-methoxyphenethyl)-9,10-dimethyl-5,8,11,15-tetraoxo-2,3,4,5,6,7,8,9,10,11,12,13,14,15-tetradecahydrobenzo[p][1]oxa[4,7,10,14]tetraazacycloheptadecine-13-carboxamide]
EC50 [3]: 365 nM | Emax [4]: 169%

EC50 [3]: 314 nM | Emax [4]: 157%
SMILES: Cc1cc(C)cc(-c2noc(CCNC(=O)[C@@H]3CC(=O)N(C)[C@@H](CC(C)C)C(=O)N4CCCC[C@@H]4C(=O)N[C@H](Cc4ccccc4)COc4cnc5ccccc5c4C(=O)N3)n2)c1 [Example 86, (9S,13S,19aR,22R)-22-benzyl-N-(2-(3-(3,5-dimethylphenyl)-1,2,4-oxadiazol-5-yl)ethyl)-13-isobutyl-12-methyl-7,11,14,20-tetraoxo-7,8,9,10,11,12,13,14,17,18,19,19a,20,21,22,23-hexadecahydro-16H-pyrido[2′,1′:6,7][1]oxa[4,7,10,14]tetraazacycloheptadecino[17,16-c]quinoline-9-carboxamide]

Emax [4]: 106%
SMILES: CC(C)C[C@H]1C(=O)N2CCCC[C@@H]2C(=O)N[C@H](Cc2ccccc2)COc2ccc3ncn(C)c3c2C(=O)N[C@H](C(=O)NCCc2cccc(-n3nccn3)c2)CC(=O)N1C (racemic) [Example 28, (8RS,12S,18aR,21R)-N-(3-(2H-1,2,3-triazol-2-yl)phenethyl)-21-benzyl-12-isobutyl-5,11-dimethyl-6,10,13,19-tetraoxo-6,7,8,9,10,11,12,13,16,17,18,18a,19,20,21,22-hexadecahydro-5H,15H-imidazo[4′,5′:5,6]benzo[1,2-p]pyrido[2,1-f][1]oxa[4,7,10,14]tetraazacycloheptadecine-8-carboxamide]

SMILES: COc1cccc(CCNC(=O)[C@@H]2CC(=O)N(C)[C@@H](CC(C)C)C(=O)N3CCN(C4CC4)C[C@H]3C(=O)N[C@H](Cc3ccccc3)COc3ccc4ccccc4c3C(=O)N2)c1 [Example 357, (4aS,7R,18S,22S)-7-benzyl-3-cyclopropyl-22-isobutyl-N-(3-methoxyphenethyl)-21-methyl-5,16,20,23-tetraoxo-2,3,4,4a,5,6,7,8,16,17,18,19,20,21,22,23-hexadecahydro-1H-naphtho[1,2-p]pyrazino[2,1-f][1]oxa[4,7,10,14]tetraazacycloheptadecine-18-carboxamide]
EC50 [3]: 475 nM | Emax [4]: 124%

SMILES: CC(C)C[C@H]1C(=O)N(C)CC(=O)N[C@H](Cc2ccccc2)COc2nc3ccccn3c2C(=O)N[C@H](C(=O)NCCc2ccc3c(c2)OCO3)CC(=O)N1C [Example 430, (3R,9S,13S)-N-(2-(benzo[d][1,3]dioxol-5-yl)ethyl)-3-benzyl-9-isobutyl-7,10-dimethyl-5,8,11,15-tetraoxo-2,3,4,5,6,7,8,9,10,11,12,13,14,15-tetradecahydropyrido[2′,11:2,3]imidazo[4,5-p][1]oxa[4,7,10,14]tetraazacycloheptadecine-13-carboxamide]
EC50 [1]: 964 nM | Emax [2]: 194%

EC50 [3]: 151 nM | Emax [4]: 130%
SMILES: COc1cccc2c1C(=O)N[C@H](C(=O)NCCc1cccc(OC(F)F)c1)CC(=O)N(C)[C@@H](CC(C)C)C(=O)N(CCC1CCCCC1)CC(=O)N[C@H](Cc1ccccc1)CO2 [Example 150, (3R,9S,13S)-3-benzyl-7-(2-cyclohexylethyl)-N-(3-(difluoromethoxy)phenethyl)-9-isobutyl-16-methoxy-10-methyl-5,8,11,15-tetraoxo-2,3,4,5,6,7,8,9,10,11,12,13,14,15-tetradecahydrobenzo[p][1]oxa[4,7,10,14]tetraazacycloheptadecine-13-carboxamide]

SMILES: CC(C)C[C@H]1C(=O)N(C[C@@H]2CCCCO2)CC(=O)N[C@H](Cc2ccccc2)COc2ccc3ccccc3c2C(=O)N[C@H](C(=O)NCCc2ccc3c(c2)OCO3)CC(=O)N1C (racemic) [Example 163, (3RS,7S,13R)-N-(2-(benzo[d][1,3]dioxol-5-yl)ethyl)-13-benzyl-7-isobutyl-6-methyl-1,5,8,11-tetraoxo-9-(((S)-tetrahydro-2H-pyran-2-yl)methyl)-1,2,3,4,5,6,7,8,9,10,11,12,13,14-tetradecahydronaphtho[1,2-p][1]oxa[4,7,10,14]tetraazacycloheptadecine-3-carboxamide]
EC50 [3]: 377 nM | Emax [4]: 185%

SMILES: CC(C)C[C@H]1C(=O)N(C)[C@H](Cc2cc(C(C)(C)C)no2)C(=O)N[C@H](Cc2ccccc2)COc2cnc3ccc(F)cc3c2C(=O)N[C@H](C(=O)NCCc2noc(C3CC3)n2)CC(=O)N1C [Example 886, (3S,7S,10R,13R)-13-benzyl-10-((3-(tert-butyl)isoxazol-5-yl)methyl)-N-(2-(5-cyclopropyl-1,2,4-oxadiazol-3-yl)ethyl)-20-fluoro-7-isobutyl-6,9-dimethyl-1,5,8,11-tetraoxo-1,2,3,4,5,6,7,8,9,10,11,12,13,14-tetradecahydro-[1]oxa[4,7,10,14]tetraazacycloheptadecino[17,16-c]quinoline-3-carboxamide]
EC50 [5]: 15 nM | Emax [6]: 359%

EC50 [3]: 777 nM | Emax [4]: 189%
SMILES: COc1cc(CCNC(=O)[C@@H]2CC(=O)N(C)[C@@H](CC(C)C)C(=O)N3CCCC[C@@H]3C(=O)N[C@H](Cc3ccccc3)COc3cnc4ccccc4c3C(=O)N2)ccc1-n1nccn1 [Example 93, (9S,13S,19aR,22R)-22-benzyl-13-isobutyl-N-(3-methoxy-4-(2H-1,2,3-triazol-2-yl)phenethyl)-12-methyl-7,11,14,20-tetraoxo-7,8,9,10,11,12,13,14,17,18,19,19a,20,21,22,23-hexadecahydro-16H-pyrido[2′,1′:6,7][1]oxa[4,7,10,14]tetraazacycloheptadecino[17,16-c]quinoline-9-carboxamide]

SMILES: COc1cc2c(cc1OC)C(=O)N[C@H](C(=O)NCCc1ccc3c(c1)OCO3)CC(=O)N(C)[C@@H](CC(C)C)C(=O)N(CCC1CCCCC1)CC(=O)N[C@H](Cc1ccccc1)CO2 [Example 585, (3R,9S,13S)-N-(2-(benzo[d][1,3]dioxol-5-yl)ethyl)-3-benzyl-7-(2-cyclohexylethyl)-9-isobutyl-17,18-dimethoxy-10-methyl-5,8,11,15-tetraoxo-2,3,4,5,6,7,8,9,10,11,12,13,14,15-tetradecahydrobenzo[p][1]oxa[4,7,10,14]tetraazacycloheptadecine-13-carboxamide]
EC50 [1]: 176 nM | Emax [2]: 168%

SMILES: COc1cccc(CCNC(=O)[C@@H]2CC(=O)N(C)[C@@H](CC(C)C)C(=O)N3CCN(S(=O)(=O)c4ccc5c(c4)OCCN5C)C[C@@H]3C(=O)N[C@H](Cc3ccccc3)COc3ccc4ccccc4c3C(=O)N2)c1 [Example 741, (4aR,7R,18S,22S)-7-benzyl-22-isobutyl-N-(3-methoxyphenethyl)-21-methyl-3-((4-methyl-3,4-dihydro-2H-benzo[b][1,4]oxazin-7-yl)sulfonyl)-5,16,20,23-tetraoxo-2,3,4,4a,5,6,7,8,16,17,18,19,20,21,22,23-hexadecahydro-1H-naphtho[1,2-p]pyrazino[2,1-f][1]oxa[4,7,10,14]tetraazacycloheptadecine-18-carboxamide]
EC50 [1]: 116 nM | Emax [2]: 294%

EC50 [5]: 281 nM | Emax [6]: 458%
SMILES: COc1noc(CCNC(=O)[C@@H]2CC(=O)N(C)[C@@H](CC(C)C)C(=O)N(C)[C@H](CC(F)F)C(=O)N[C@H](Cc3ccccc3)COc3ccc4ncc(F)cc4c3C(=O)N2)n1 [Example 947, (3S,7S,10R,13R)-13-benzyl-10-(2,2-difluoroethyl)-20-fluoro-7-isobutyl-N-(2-(3-methoxy-1,2,4-oxadiazol-5-yl)ethyl)-6,9-dimethyl-1,5,8,11-tetraoxo-1,2,3,4,5,6,7,8,9,10,11,12,13,14-tetradecahydro-[1]oxa[4,7,10,14]tetraazacycloheptadecino[16,17-f]quinoline-3-carboxamide]

EC50 [5]: 508 nM | Emax [6]: 412%
SMILES: Cc1cc2c3c(ccc2cn1)OC[C@@H](Cc1ccccc1)NC(=O)[C@@H](CC(F)(F)F)N(C)C(=O)[C@H](CC(C)C)N(C)C(=O)C[C@@H](C(=O)NCCc1cc(C2CC2)no1)NC3=O [Example 956, (3S,7S,10R,13R)-13-benzyl-N-(2-(3-cyclopropylisoxazol-5-yl)ethyl)-7-isobutyl-6,9,20-trimethyl-1,5,8,11-tetraoxo-10-(2,2,2-trifluoroethyl)-1,2,3,4,5,6,7,8,9,10,11,12,13,14-tetradecahydro-[1]oxa[4,7,10,14]tetraazacycloheptadecino[16,17-f]isoquinoline-3-carboxamide]
